# Read-outs that look alike come from different tables or passages of the source.
# System: gray mold fungus (Botrytis cinerea)
# Assay: Cucumber leaf disk preventive test against gray mold
# Format: in vivo
# Settings: for pest or weed control at 0.5 ppm / pest or weed control at 5 ppm: Botrytis cinerea, foliar, 96 h, read-out: preventive value (%)
# Method: To a SUS beaker are added 30 parts of the present compound (racemate), 5 parts of Soprophor FLK (polyoxyethylene tristyrylphenyl ether phosphate, produced by Rhodia Nicca Ltd.), 65 parts of ion-exchange water and 150 parts of glass beads (1.0 mm diameter). The mixture is subjected to grinding at a velocity of 1000 rpm with cooling to 10° C., and thereafter the glass beads are separated, so as to obtain a flowable formulation comprising the present compound (racemate).
# True leaf of cucumber is punched out with cork borer to 13 mm in diameter to prepare a leaf disk. In 24 well microwell plate that is dispensed with 1 ml 0.8% water agar, the leaf disk is placed such that the upper side of the leaf is in an upward direction. Thereto is added 20 micro liter a testing solution prepared by mixing the flowable formulation of the present compound (racemate) prepared by the above procedure and a commercial wettable powder of fludioxonil or chlorothalonil to a predetermined concentration to treat the leaf disk.
# After confirming that the testing medical solution is dried, conidium of gray mold fungus (Botrytis cinerea) is suspended into potato dextrose broth (DIFCO) in a density of about 10^5 conidium/mL and is then subjected to a spray inoculation. After leaving to stand the leaf disk in a growth chamber set up at 15° C. for four days, an onset area on the leaf is measured and then calculated an onset area rate (hereinafter, referred to as an onset area rate of treated group).
# The same operation is carried out with 20 micro liter water instead of 20 micro liter a testing medicine solution to calculate an onset area rate (hereinafter, referred to an onset area rate of non-treated group).
# A preventive value is calculated from the above onset area rate of treated group and the onset area rate of non-treated group by the following equation: Preventive value (%)=100×(A−B)/A
# A: an onset area rate of treated group
# B: an onset area rate of non-treated group
# The same operations as described in Test Example 1 are carried out with cyflufenamid, diethofencarb, dithianon, fluazinam, flusulfamide, fosetyl-Al, metrafenon, penflufen, phthalide, sedaxane, spiroxamine or tebufloquin, instead of fludioxonil or chlorothalonil, so as to calculate respective preventive values.
# Also for comparison, the same operations as described in Test Example 1 are carried out with the exception that the testing medicine solution is substituted with a predetermined concentration of each dimethyl sulfoxide solution of the present compound (racemate), cyflufenamid, diethofencarb, dithianon, fluazinam, flusulfamide, fosetyl-Al, metrafenon, penflufen, phthalide, sedaxane, spiroxamine or tebufloquin, so as to calculate respective preventive values.
# For comparison, the same operations as described in Test Example 1 are carried out with the exception that the testing medicine solution is substituted with a predetermined concentration of each dimethyl sulfoxide solution of fludioxonil or chlorothalonil, so as to calculate a preventive value.
# [1] = partner fungicide alone 0.5 ppm, dimethyl sulfoxide solution, cucumber leaf disk, 15° C., four days
# [2] = partner fungicide alone 5.0 ppm, dimethyl sulfoxide solution, cucumber leaf disk, 15° C., four days
SMILES,pest or weed control at 0.5 ppm [1],pest or weed control at 5 ppm [2],preventive value (%) [1],preventive value (%) [2],also measured
N#Cc1c(Cl)c(Cl)c(Cl)c(C#N)c1Cl [chlorothalonil],15%,45%,,,
O=C(Cc1ccccc1)N/C(=N\OCC1CC1)c1c(C(F)(F)F)ccc(F)c1F [cyflufenamid],10%,15%,,,
CCOc1ccc(NC(=O)OC(C)C)cc1OCC [diethofencarb],0%,0%,,,
N#Cc1sc2c(=O)c3ccccc3c(=O)c=2sc1C#N [dithianon],15%,20%,,,
O=[N+]([O-])c1cc(C(F)(F)F)c(Cl)c([N+](=O)[O-])c1Nc1ncc(C(F)(F)F)cc1Cl [fluazinam],47%,52%,,,
N#Cc1c[nH]cc1-c1cccc2c1OC(F)(F)O2 [fludioxonil],,,,,pest or weed control at 0.5 ppm: 45%; pest or weed control at 5 ppm: 57%
O=[N+]([O-])c1ccc(NS(=O)(=O)c2ccc(Cl)c(C(F)(F)F)c2)c(Cl)c1 [flusulfamide],,,,,pest or weed control at 0.5 ppm: 15%; pest or weed control at 5 ppm: 20%
CCO[PH](=O)O [fosetyl-Al],,,15%,20%,
COc1cc(C)c(C(=O)c2c(OC)ccc(Br)c2C)c(OC)c1OC [metrafenon],,,10%,15%,
Cc1nn(C)c(F)c1C(=O)Nc1ccccc1C(C)CC(C)C (stereo not shown) [penflufen],,,10%,15%,
O=C1OCc2ccccc21 [phthalide],10%,15%,,,
Cn1cc(C(=O)Nc2ccccc2C2CC2C2CC2)c(C(F)F)n1 (stereo not shown) [sedaxane],,,20%,40%,
CCCN(CC)CC1COC2(CCC(C(C)(C)C)CC2)O1 (stereo not shown) [spiroxamine],10%,15%,,,
CC(=O)Oc1c(C)c(C)nc2c(F)cc(C(C)(C)C)cc12 [tebufloquin],,,10%,15%,
